Measurements reported in the NIST ThermoML archive (doi:10.1016/j.fluid.2018.10.006).
Where “and” joins values, the source holds several entries; their conditions need not be identical. Identical values can stand only once.

Details: Fluid (supercritical or subcritical phases), Coaxial cylinder method

CCCCCC [hexane]
Details | thermal conductivity
511.79 K, 4180 kPa | 0.07039 W/m/K
511.79 K, 4190 kPa | 0.07026 W/m/K
511.79 K, 4200 kPa | 0.07026 W/m/K
511.79 K, 4400 kPa | 0.07099 W/m/K
511.79 K, 4600 kPa | 0.07159 W/m/K
511.79 K, 4800 kPa | 0.07179 W/m/K
511.79 K, 5400 kPa | 0.07303 W/m/K
511.79 K, 6000 kPa | 0.074 W/m/K
511.79 K, 7000 kPa | 0.07567 W/m/K
511.79 K, 8000 kPa | 0.07705 W/m/K
511.79 K, 9000 kPa | 0.07812 W/m/K
511.79 K, 10000 kPa | 0.07922 W/m/K
513.09 K, 2634 kPa | 0.0455 W/m/K
513.09 K, 2645 kPa | 0.04562 W/m/K
513.09 K, 2653 kPa | 0.04575 W/m/K
513.09 K, 2654 kPa | 0.04575 W/m/K
513.09 K, 2655 kPa | 0.04575 W/m/K
513.09 K, 2661 kPa | 0.04587 W/m/K
513.09 K, 2722 kPa | 0.04549 W/m/K
513.09 K, 2740 kPa | 0.04678 W/m/K
513.09 K, 2760 kPa | 0.04705 W/m/K
513.09 K, 2763 kPa | 0.04704 W/m/K
513.09 K, 2839 kPa | 0.04831 W/m/K
513.09 K, 2849 kPa | 0.04859 W/m/K
513.09 K, 2879 kPa | 0.04916 W/m/K
513.09 K, 2894 kPa | 0.04931 W/m/K
513.09 K, 2909 kPa | 0.0496 W/m/K
513.09 K, 2931 kPa | 0.05008 W/m/K
513.09 K, 2953 kPa | 0.05053 W/m/K
513.09 K, 2983 kPa | 0.05146 W/m/K
513.09 K, 3010 kPa | 0.05237 W/m/K
513.09 K, 3034 kPa | 0.05319 W/m/K
513.09 K, 3054 kPa | 0.05386 W/m/K
513.09 K, 3098 kPa | 0.05597 W/m/K
513.09 K, 3114 kPa | 0.05684 W/m/K
513.09 K, 3152 kPa | 0.05939 W/m/K
513.09 K, 3163 kPa | 0.06043 W/m/K
513.09 K, 3169 kPa | 0.06085 W/m/K
513.09 K, 3176 kPa | 0.06151 W/m/K
513.09 K, 3180 kPa | 0.06217 W/m/K
513.09 K, 3184 kPa | 0.06262 W/m/K
513.09 K, 3186 kPa | 0.06285 W/m/K
513.09 K, 3193 kPa | 0.06308 W/m/K
513.09 K, 3195 kPa | 0.06308 W/m/K
513.09 K, 3200 kPa | 0.06331 W/m/K
513.09 K, 3205 kPa | 0.06425 W/m/K
513.09 K, 3207 kPa | 0.06497 W/m/K
513.09 K, 3212 kPa | 0.06596 W/m/K
513.09 K, 3216 kPa | 0.06647 W/m/K
513.09 K, 3231 kPa | 0.06898 W/m/K
513.09 K, 3232 kPa | 0.06917 W/m/K
513.09 K, 3234 kPa | 0.06942 W/m/K
513.09 K, 3235 kPa | 0.06951 W/m/K
513.09 K, 3236 kPa | 0.06967 W/m/K
513.09 K, 3237 kPa | 0.06987 W/m/K
513.09 K, 3238 kPa | 0.07001 W/m/K
513.09 K, 3240 kPa | 0.07024 W/m/K
513.09 K, 3242 kPa | 0.07052 W/m/K
513.09 K, 3243 kPa | 0.07067 W/m/K
513.09 K, 3244 kPa | 0.07081 W/m/K
513.09 K, 3246 kPa | 0.0711 W/m/K
513.09 K, 3247 kPa | 0.07125 W/m/K
513.09 K, 3248 kPa | 0.07133 W/m/K
513.09 K, 3249 kPa | 0.07154 W/m/K
513.09 K, 3251 kPa | 0.07169 W/m/K
513.09 K, 3252 kPa | 0.07184 W/m/K
513.09 K, 3253 kPa | 0.07198 W/m/K
513.09 K, 3254 kPa | 0.07213 W/m/K
513.09 K, 3255 kPa | 0.07228 W/m/K
513.09 K, 3256 kPa | 0.07243 W/m/K
513.09 K, 3257 kPa | 0.07258 W/m/K
513.09 K, 3258 kPa | 0.07265 W/m/K
513.09 K, 3260 kPa | 0.07284 W/m/K
513.09 K, 3261 kPa | 0.07295 W/m/K and 0.073 W/m/K
513.09 K, 3262 kPa | 0.07311 W/m/K
513.09 K, 3263 kPa | 0.07319 W/m/K
513.09 K, 3265 kPa | 0.07338 W/m/K
513.09 K, 3266 kPa | 0.07346 W/m/K
513.09 K, 3267 kPa | 0.07354 W/m/K
513.09 K, 3274 kPa | 0.07412 W/m/K
513.09 K, 3277 kPa | 0.07428 W/m/K
513.09 K, 3279 kPa | 0.07428 W/m/K
